We go through 16 compounds from patent US5395824A, “Dipeptide derivative and prophylactic and therapeutic agent for bone diseases containing the same” (Suntory Limited, priority 1991, dated 1995).

Molecules are shown by their SMILES.

For assay [1], the system named is PTHrp(1-34)-Induced Hypercalcemia in Rats. Briefly: Effect on PTHrp(1-34)-induced hypercalcemia in rats (i.p.). Format: in vivo. Conditions: male Wistar rats, 40 mg/kg i.p.; PTHrp(1-34) 5 nmole/kg i.v. two hours later; blood sample 1 hour after PTHrp; n = 5; PTHrp-only control 10.79 ± 0.13. How it is done:
Some of the compounds shown in Table 1 were intraperitoneally administered to 5-week-old male Wistar rats each weighing 90 to 110 g (5 animals per group) at a dose of 40 mg/kg body weight. Two hours later, 5 nmole/kg of PTHrp(1-34) was intravenously injected. One hour after the administration of PTHrp(1-34), a blood sample was collected from each animal, and the blood calcium concentration was determined according to the same method as in Test Example 1.

Assay [2] shares this test system. Kind of assay: Effect on PTHrp(1-34)-induced hypercalcemia in rats (p.o.). Format: in vivo. Conditions: male Wistar rats, 40 mg/kg p.o.; PTHrp(1-34) 5 nmole/kg i.v. four hours later; blood sample 1 hour after PTHrp; n = 5; PTHrp-only control 10.84 ± 0.11. How it is done: Some of the compounds shown in Table 1 were orally administered to 5-week-old male Wistar rats weighing from […] to 110 g (5 animals per group) at a dose of 40 mg/kg body weight. Four hours later, 5 nmole/kg of PTHrp(1-34) was intravenously injected into the animals. One hour after the administration of PTHrp(1-34)sequence ID No. 1, a blood sample was collected from each rat, and the blood calcium concentration was determined by the octocresolphthalein complexone method.

On to `CCCCC(NC(=O)[C@H](CC(C)C)NC(C)=O)C(OC)OC` (stereo partly drawn) [Example 16, N-Acetyl-L-leucine-(1-dimethoxymethyl)pentylamide], for which the “Ca Conc. ± S.E. (average blood calcium concentration)” value in assay [1] is 9.95 ± 0.14 mg/dL; in assay [2] it was 9.91 ± 0.13 mg/dL. Regarding `CCCCC(NC(=O)[C@H](CC(C)C)NC(=O)OCc1ccccc1)C1OCCO1` (stereo partly shown) [Example 9], the “Ca Conc. ± S.E. (average blood calcium concentration)” value in assay [2] is 10.41 ± 0.08 mg/dL. Take `CCCCC(NC(=O)[C@H](CC(C)C)NC(=O)OCc1ccccc1)C1SCCS1` (stereo partly drawn) [Example 13, N-Benzyloxycarbonyl-L-leucine-[1-(1,3-dithiolan-2-yl)]pentylamide]: in assay [1], the “Ca Conc. ± S.E. (average blood calcium concentration)” value is 10.23 ± 0.05 mg/dL. With `CCCCC(NC(=O)[C@H](CC(C)C)NC(=O)OCc1ccccc1)C(OC)OC` (stereo partly drawn) [Example 7, N-Benzyloxycarbonyl-L-leucine-(1-dimethoxymethyl)pentylamide], the “Ca Conc. ± S.E. (average blood calcium concentration)” value in assay [1] was 10.29 ± 0.14 mg/dL; in assay [2], 10.36 ± 0.11 mg/dL. `CCCCC(NC(=O)[C@H](CC(C)C)NC(=O)OCc1ccccc1)C(OC(C)=O)OC(C)=O` (stereo partly drawn) [Example 12, N-Benzyloxycarbonyl-L-leucine-(1-diacetoxymethyl)pentylamide]: in assay [1], the “Ca Conc. ± S.E. (average blood calcium concentration)” value was 10.27 ± 0.08 mg/dL. `CCCCC(NC(=O)[C@H](CC(C)C)NC(=O)CC)C(OC)OC` (stereo partly drawn) [Example 25, N-Propionyl-L-leucine-(1-dimethoxymethyl)pentylamide]: the “Ca Conc. ± S.E. (average blood calcium concentration)” value in assay [2] is 9.88 ± 0.09 mg/dL. `CCCCC(NC(=O)[C@H](CC(C)C)NC(=O)OCc1ccccc1)C(=O)C(=O)OCC` (stereo partly drawn) [Example 1, N-Benzyloxycarbonyl-L-leueine-(1-ethoxalyl)pentylamide]: the “Ca Conc. ± S.E. (average blood calcium concentration)” value in assay [1] is 10.33 ± 0.12 mg/dL. For `CCCCC(NC(=O)[C@H](CC(C)C)NC(=O)CCl)C(OC)OC` (stereo partly drawn) [Example 24, N-Chloroacetyl-L-leucine-(1-dimethoxymethyl)pentylamide], in assay [2], the “Ca Conc. ± S.E. (average blood calcium concentration)” value was 10.12 ± 0.09 mg/dL. For the compound `CCCCC(NC(=O)[C@H](CC(C)C)NC(=O)OCc1ccccc1)C1NCCS1` (stereo partly drawn) [Example 15, N-Benzyloxycarbonyl-L-leucine-[1-(thiazolidine-2-yl)]pentylamide], the “Ca Conc. ± S.E. (average blood calcium concentration)” value was 10.13 ± 0.21 mg/dL in assay [1] and 9.98 ± 0.13 mg/dL in assay [2]. The matching figures for `CCCCC(NC(=O)[C@H](CC(C)C)NC(C)=O)C1OCCO1` (stereo partly drawn) [Example 17, N-Acetyl-L-leucine-[1-(1,3-dioxolan-2-yl)]pentylamide]: 10.16 ± 0.05 mg/dL and 9.97 ± 0.17 mg/dL.

For `CCCCC(NC(=O)[C@H](CC(C)C)NC(=O)C(F)(F)F)C(OC)OC` (stereo partly drawn) [Example 27, N-Trifluoroacetyl-L-leucine-(1-dimethoxymethyl)pentylamide], in assay [2], the “Ca Conc. ± S.E. (average blood calcium concentration)” value was 9.91 ± 0.13 mg/dL. `CCCCC(NC(=O)[C@H](CC(C)C)NC(=O)C(C)C)C(OC)OC` (stereo partly drawn) [Example 23, N-Isobutyryl-L-leucine-(1-dimethoxymethyl)pentylamide]: in assay [2], the “Ca Conc. ± S.E. (average blood calcium concentration)” value is 9.83 ± 0.13 mg/dL. Consider `CCCCC(NC(=O)[C@H](CC(C)C)NC(C)=O)C(OCC)OCC` (stereo partly drawn) [Example 22, N-Acetyl-L-leucine-(1-diethoxymethyl)pentylamide], for which the “Ca Conc. ± S.E. (average blood calcium concentration)” value is 9.67 ± 0.18 mg/dL in assay [1] and 10.05 ± 0.13 mg/dL in assay [2]. In the same order, the values of `CCCCC(NC(=O)[C@H](CC(C)C)NC(C)=O)C1NCCS1` (stereo partly drawn) [Example 21, N-Acetyl-L-leucine-[1-(thiazolidine-2-yl)]pentylamide] are 9.96 ± 0.07 mg/dL and 9.98 ± 0.10 mg/dL.

For `CC(C)CC(C=O)NC(=O)[C@H](CC(C)C)NC(=O)OCc1ccccc1` (stereo partly drawn) [Example 33, N-Benzyloxycarbonyl-L-leucine-(1-formyl-3-methyl)butylamide], in assay [2], the “Ca Conc. ± S.E. (average blood calcium concentration)” value was 10.26 ± 0.13 mg/dL. Still for that read-out and setting: under `CCCCC(NC(=O)[C@H](CC(C)C)NC(=O)CCC)C(OC)OC` (stereo partly drawn) [Example 26, N-Butyryl-L-leucine-(1-dimethoxymethyl)pentylamide] stands 9.85 ± 0.08 mg/dL.
